# Measured values: patent US20240252673A1, “ANTI-TISSUE FACTOR ANTIBODY-DRUG CONJUGATES AND THEIR USE IN THE TREATMENT OF CANCER” (priority 2017, published 2024)
# What was measured:
# Format in all cases: in vivo, human
# [1] = test system: relapsed, recurrent and/or metastatic cervical cancer; test: Phase IIa single arm trial: anti-tumor activity per RECIST v1.1
# [2] = test system: relapsed, recurrent and/or metastatic cervical cancer; test: as above; conditions: 2.0 mg/kg q3w
# Experimental: A Phase IIa single arm, multicenter trial investigated the efficacy, safety and tolerability of 2.0 mg/kg tisotumab vedotin in patients with relapsed, recurrent and/or metastatic cervical cancer. A total of 34 patients (n=34) were enrolled and received at least 1 dose of tisotumab vedotin. Each eligible patient was assigned to receive an intravenous (IV) infusion dose of tisotumab vedotin at a concentration of 2.0 mg/kg on day 1 of a 21-day cycle (i.e., each treatment cycle was 3 weeks (q3w)).
# A primary objective of the study was to assess safety and tolerability of tisotumab vedotin. Adverse event (AE) severity was graded according to CTCAE version 4.03. A secondary objective was preliminary evaluation of anti-tumor activity durability as assessed according to RECIST version 1.1. Tumor evaluations were performed by CT scans every six weeks.
# [3] = Phase I/II dose-escalation study: plasma pharmacokinetics; conditions: cycle 1, plasma, geometric mean (% CV)
# Experimental: A first-in-human phase I/II dose-escalating study following a 3+3 dose-escalation design was conducted in order to test the safety of tisotumab vedotin in 27 subjects with locally advanced and/or metastatic cancer of various types including cervical cancer (FIG. 2). Tisotumab vedotin was administered by intravenous infusion at doses ranging from 0.3 mg/kg to 2.2 mg/kg on day 1 of a 21-day cycle for four cycles (i.e., each treatment cycle was 3 weeks). Patients with stable disease (SD) or better at the end of four cycles had the option to continue treatment with tisotumab vedotin for eight additional cycles (FIG. 2). Tumor evaluations were performed by CT scans every six weeks. In order to qualify for SD, results of the CT scan scheduled for week six needed to be SD or better. Two CT scans were performed outside the per-protocol defined window.
# A primary objective of the study was to assess the safety and tolerability in a mixed population of patients with specified solid tumors. Adverse event (AE) severity was graded according to Common Terminology Criteria for Adverse Events (CTCAE) version 4.03. Secondary objectives of the study included determining the pharmacokinetic (PK) profile of tisotumab vedotin and preliminary evaluation of anti-tumor activity as assessed according to Response Evaluation Criteria in Solid Tumors [RECIST] version 1.1. Dose-limiting toxicities (DLTs) were determined during the first cycle and were defined as grade≥3 events possibly related to tisotumab vedotin. […] Tumor biopsies were required at baseline for TF expression which was assessed by immunohistochemistry utilizing tisotumab. TF staining intensity was determined using the H-scoring system.
# The geometric means (% CV) of the time to reach Cmax (Tmax)(hr), maximum concentration (Cmax)(ng/mL), and area under the concentration time curve (AUC)0-t (hr*ng/mL) was measured for the pharmacokinetics (PK) portion of the study (Table 3). Low levels of unconjugated MMAE were measured in systemic circulation (FIG. 4).
# [4] = test system: tisotumab vedotin treated patients; test: Adverse events of special interest reported in tisotumab vedotin treated patients
# Source text: Three adverse events of special interest are ocular adverse events, adverse events of peripheral neuropathy, and adverse events of bleeding. […] Severe cases (CTCAE grade 3) of conjunctivitis and keratitis are observed, however implementation of a comprehensive mitigation plan and preventive measures substantially reduce both the frequency and severity of ocular adverse reactions. In order to prevent ocular AEs, the following ocular pre-medication guidelines are followed: use of preservative-free lubricating eye drops from the start of treatment with tisotumab vedotin until the end of treatment; avoid use of contact lenses while treated with tisotumab vedotin; use of refrigerator-based eye cooling pads during infusion, e.g. THERA PEARL Eye Mask or similar, to be applied immediately before infusion in accordance with the instructions provided with the eye cooling pads; administration of local ocular vasoconstrictor before infusion (brimonidine tartrate 0.2% eye drops or similar, 3 drops in each eye immediately prior to start of infusion; otherwise to be used in accordance with the product prescribing information).
# A mitigation plan, including dose reduction (see Table 9) and dose delay (i.e., hold dosing until event has improved to ≤grade 1), is in place to prevent onset of peripheral neuropathy as well as deterioration of pre-existing conditions. For AEs of bleeding: Bleeding events are considered of special interest due to the mode of action of tisotumab vedotin. […] Excluding epistaxis, no causal relation has been established for the majority of the reported bleeding events and treatment with tisotumab vedotin.
substance,measurement,setting,value
tisotumab vedotin,Median DoR,"[1]; 2.0 mg/kg q3w, N = 34",8.3 months
same,Objective response rate (ORR),"[1]; 2.0 mg/kg q3w, N = 34",11 n
same,DCR (CR + PR + SD),"[1]; 2.0 mg/kg q3w, N = 34, clinical benefit after 12 weeks",17 n
same,"ORR, combined unconfirmed + confirmed","[1]; expanded cohort, all efficacy-evaluable patients, N 51",16 N
same,"ORR, combined unconfirmed + confirmed","[1]; expanded cohort, all efficacy-evaluable patients, N 51, 95% CI 19-46",31%
same,"ORR, combined unconfirmed + confirmed","[1]; histology Adenocarcinoma, N 18",4 N
same,"ORR, combined unconfirmed + confirmed","[1]; histology Adenocarcinoma, N 18, 95% CI 6-48",22%
same,"ORR, combined unconfirmed + confirmed","[1]; histology Adenosquamous, N 4",2 N
same,"ORR, combined unconfirmed + confirmed","[1]; histology Adenosquamous, N 4, 95% CI 7-93",50%
same,"ORR, combined unconfirmed + confirmed","[1]; histology Other, N 2",1 N
same,"ORR, combined unconfirmed + confirmed","[1]; histology Other, N 2, 95% CI 1-99",50%
same,"ORR, combined unconfirmed + confirmed","[1]; histology Squamous, N 27",9 N
same,"ORR, combined unconfirmed + confirmed","[1]; histology Squamous, N 27, 95% CI 17-54",33%
same,"ORR, combined unconfirmed + confirmed","[1]; prior GOG 240 regimen No, N 14",4 N
same,"ORR, combined unconfirmed + confirmed","[1]; prior GOG 240 regimen No, N 14, 95% CI 8-58",29%
same,"ORR, combined unconfirmed + confirmed","[1]; prior GOG 240 regimen Yes, N 37",12 N
same,"ORR, combined unconfirmed + confirmed","[1]; prior GOG 240 regimen Yes, N 37, 95% CI 18-50",32%
same,"ORR, combined unconfirmed + confirmed","[1]; prior bevacizumab No, N 11",4 N
same,"ORR, combined unconfirmed + confirmed","[1]; prior bevacizumab No, N 11, 95% CI 11-69",36%
same,"ORR, combined unconfirmed + confirmed","[1]; prior bevacizumab Yes, N 40",12 N
same,"ORR, combined unconfirmed + confirmed","[1]; prior bevacizumab Yes, N 40, 95% CI 17-47",30%
same,"ORR, combined unconfirmed + confirmed","[1]; prior lines of systemic therapy 1, N 23",8 N
same,"ORR, combined unconfirmed + confirmed","[1]; prior lines of systemic therapy 1, N 23, 95% CI 16-57",35%
same,"ORR, combined unconfirmed + confirmed","[1]; prior lines of systemic therapy 2, N 17",6 N
same,"ORR, combined unconfirmed + confirmed","[1]; prior lines of systemic therapy 2, N 17, 95% CI 14-62",35%
same,"ORR, combined unconfirmed + confirmed","[1]; prior lines of systemic therapy 3-4, N 11",2 N
same,"ORR, combined unconfirmed + confirmed","[1]; prior lines of systemic therapy 3-4, N 11, 95% CI 2-52",18%
same,"ORR, combined unconfirmed + confirmed","[1]; prior taxane No, N 3",1 N
same,"ORR, combined unconfirmed + confirmed","[1]; prior taxane No, N 3, 95% CI 1-91",33%
same,"ORR, combined unconfirmed + confirmed","[1]; prior taxane Yes, N 48",15 N
same,"ORR, combined unconfirmed + confirmed","[1]; prior taxane Yes, N 48, 95% CI 19-46",31%
same,patients withdrew from treatment due to disease progression,[2]; 34 patients,16 n
same,Median DoR for confirmed and unconfirmed responses,[2]; N = 34,^eMedian DoR of 5.4 months for confirmed and unconfirmed responses.
same,Median PFS,[2]; N = 34,6.4 months
same,confirmed PR,[2]; N = 34,8
same,unconfirmed PR,"[2]; N = 34, 1 of which is still ongoing",3
same,Objective response rate (ORR),"[2]; N = 34, 95% Confidence interval 17%-50%",32 % of total patients
same,DCR (CR + PR + SD),"[2]; N = 34, clinical benefit after 12 weeks, 95% Confidence interval 35%-65%",50 % of total patients
same,"efficacy, overall conclusion",[2]; cervical cancer cohort,robust efficacy
same,AUC0-t,"[3]; 0.3 mg/kg, N 3",59216.8 (3%) hr * ng/ml
same,Cmax,"[3]; 0.3 mg/kg, N 3",4782.7 (12%) ng/ml
same,Tmax,"[3]; 0.3 mg/kg, N 3",1.5 (73%) hr
same,AUC0-t,"[3]; 0.6 mg/kg, N 3",368432.7 (8%) hr * ng/ml
same,Cmax,"[3]; 0.6 mg/kg, N 3",12195.3 (10%) ng/ml
same,Tmax,"[3]; 0.6 mg/kg, N 3",1.2 (13%) hr
same,AUC0-t,"[3]; 0.9 mg/kg, N 3",601926.2 (17%) hr * ng/ml
same,Cmax,"[3]; 0.9 mg/kg, N 3",19811.6 (17%) ng/ml
same,Tmax,"[3]; 0.9 mg/kg, N 3",1.3 (12%) hr
same,AUC0-t,"[3]; 1.2 mg/kg, N 3",1084672.7 (9%) hr * ng/ml
same,Cmax,"[3]; 1.2 mg/kg, N 3",34673.1 (19%) ng/ml
same,Tmax,"[3]; 1.2 mg/kg, N 3",1.3 (12%) hr
same,AUC0-t,"[3]; 1.5 mg/kg, N 3",794988.4 (19%) hr * ng/ml
same,Cmax,"[3]; 1.5 mg/kg, N 3",23115.6 (21%) ng/ml
same,Tmax,"[3]; 1.5 mg/kg, N 3",1.1 (9.6%) hr
same,AUC0-t,"[3]; 1.8 mg/kg, N 3",1504823.8 (50%) hr * ng/ml
same,Cmax,"[3]; 1.8 mg/kg, N 3",35416.3 (39%) ng/ml
same,Tmax,"[3]; 1.8 mg/kg, N 3",1.2 (14%) hr
same,AUC0-t,"[3]; 2.0 mg/kg, N 3",1256379.7 (33%) hr * ng/ml
same,Cmax,"[3]; 2.0 mg/kg, N 3",32296.1 (22%) ng/ml
same,Tmax,"[3]; 2.0 mg/kg, N 3",1.2 (8%) hr
same,AUC0-t,"[3]; 2.2 mg/kg, N 6",2037070.5 (34%) hr * ng/ml
same,Cmax,"[3]; 2.2 mg/kg, N 6",55530.3 (10%) ng/ml
same,Tmax,"[3]; 2.2 mg/kg, N 6",1.1 (13%) hr
same,AEs of grade 1-2 conjunctivitis,"[4]; human, in vivo",frequently reported
same,impact on activated partial thromboplastin time (aPTT) or prothrombin time (PT),"[4]; human, in vivo",no major impact
same,"peripheral neuropathy, grade of the reported cases",[4]; leading cause of permanent discontinuation,majority of the reported cases are grade 1-2
same,Epistaxis,[4]; nearly all of the cases are grade 1,most common reported AE
